Experimental findings from article PMC9687610, “Adenosine-Mimicking Derivatives of 3-Aminopyrazine-2-Carboxamide: Towards Inhibitors of Prolyl-tRNA Synthetase with Antimycobacterial Activity” (Biomolecules, 2022) are described below.

The term MIC denotes the lowest concentration found to suppress growth. By IC50 is commonly meant the midpoint of a concentration-inhibition curve. By melting point is commonly meant the temperature of the solid-liquid transition.

Data set [1] concerns Mycobacterium tuberculosis H37Ra ITM-M006710 (ATCC 9431). Description: Microplate Alamar Blue Assay (MABA), Mtb H37Ra. To be noted: Mycobacterium tuberculosis, 120 h. Type of data set: cell-based. On the technique in general: Alamar Blue is a resazurin reagent that responds to reducing activity.
Data set [2] concerns Klebsiella pneumoniae CCM 4415 (ATCC 10031). Description: Antibacterial microdilution broth (EUCAST), KP. To be noted: read after 24 h. For orientation: Broth dilution looks for growth in wells or tubes with falling amounts of substance.
For data set [3], the system named is Candida parapsilosis CCM 8260 (ATCC 22019). Description: Antifungal microdilution broth (EUCAST), CP. Type of data set: cell-based. To be noted: Lodderomyces parapsilosis; read after 24 h; read-out: CP MIC.
The subject of data set [4] is Pseudomonas aeruginosa CCM 3955 (ATCC 27853). Briefly: Antibacterial microdilution broth (EUCAST), PA. Type of data set: cell-based. To be noted: Pseudomonas aeruginosa; read after 24 h; read-out: PA MIC.
Data set [5] relates to Aspergillus fumigatus ATCC 204305. Description: Antifungal microdilution broth (EUCAST), AF. To be noted: Aspergillus fumigatus, ATCC204305; read after 24 h; read-out: AF MIC. In kind it is cell-based.
The subject of data set [6] is Enterococcus faecalis CCM 4224 (ATCC 29212). Briefly: Antibacterial microdilution broth (EUCAST), EF. Type of data set: cell-based. To be noted: Enterococcus faecalis; read after 24 h; read-out: EF MIC.
For data set [7], the system named is Staphylococcus aureus subsp. aureus CCM 4223 (ATCC 29213). Description: Antibacterial microdilution broth (EUCAST), SA. In kind it is cell-based. To be noted: Staphylococcus aureus; read after 24 h; read-out: SA MIC.
Data set [8] has as its system HepG2 human hepatocellular carcinoma cells. Briefly: In vitro HepG2 cytotoxicity (CellTiter 96). To be noted: Homo sapiens, HepG2, 24 h, read-out: HepG2 IC50, 24 h incubation; * limit = highest evaluated concentration (precipitation in medium); ** over the 1000 µM limit.
The subject of data set [9] is Staphylococcus epidermidis CCM 4418 (ATCC 12228). Briefly: Antibacterial microdilution broth (EUCAST), SE. To be noted: read after 24 h, read-out: SE MIC. In kind it is cell-based.
Data set [10] concerns M. aurum DSM 43999 (ATCC 23366). Briefly: Microplate Alamar Blue Assay (MABA), M. aurum. Type of data set: cell-based. To be noted: Mycolicibacterium aurum; MABA, resazurin after 72 h; read-out: M. aurum MIC.
In data set [11] the test system is Candida krusei CCM 8271 (ATCC 6258). Description: Antifungal microdilution broth (EUCAST), CK. In kind it is cell-based. To be noted: Pichia kudriavzevii; read after 24 h; read-out: CK MIC.
The test system of data set [12] is Aspergillus flavus CCM 8363. Description: Antifungal microdilution broth (EUCAST), AFla. To be noted: Aspergillus flavus, CCM8363; read after 24 h; read-out: AFla MIC. In kind it is cell-based.
In data set [13] the test system is Candida tropicalis CCM 8264 (ATCC 750). Description: Antifungal microdilution broth (EUCAST), CT. To be noted: Candida tropicalis; read after 24 h; read-out: CT MIC. Type of data set: cell-based.
The subject of data set [14] is Staphylococcus aureus subsp. aureus methicillin-resistant (MRSA) CCM 4750 (ATCC 43300). Briefly: Antibacterial microdilution broth (EUCAST), MRSA. Type of data set: cell-based. To be noted: Staphylococcus aureus; read after 24 h; read-out: MRSA MIC.
Data set [15] concerns Lichtheimia corymbifera CCM 8077. Briefly: Antifungal microdilution broth (EUCAST), LC. Type of data set: cell-based. To be noted: Lichtheimia corymbifera, CCM8077; read after 24 h; read-out: LC MIC.
For data set [16], the system named is Escherichia coli CCM 3954 (ATCC 25922). Briefly: Antibacterial microdilution broth (EUCAST), EC. In kind it is cell-based. To be noted: Escherichia coli; read after 24 h; read-out: EC MIC.
Data set [17] relates to Acinetobacter baumannii DSM 30007 (ATCC 19606). Description: Antibacterial microdilution broth (EUCAST), ACI. Type of data set: cell-based. To be noted: Acinetobacter baumannii; read after 24 h; read-out: ACI MIC.
The subject of data set [18] is Trichophyton interdigitale CCM 8377 (ATCC 9533). Briefly: Antifungal microdilution broth (EUCAST), TI. In kind it is cell-based. To be noted: Trichophyton interdigitale, 72 h, read-out: TI MIC.
Data set [19] relates to Candida albicans CCM 8320 (ATCC 24433). Description: Antifungal microdilution broth (EUCAST), CA. Type of data set: cell-based. To be noted: Candida albicans; read after 24 h; read-out: CA MIC.
Data set [20] relates to Mycobacterium smegmatis DSM 43465 (ATCC 607). Briefly: Microplate Alamar Blue Assay (MABA), M. smegmatis. In kind it is cell-based. To be noted: Mycolicibacterium smegmatis; MABA, resazurin after 48 h; read-out: M. smegmatis MIC.
The mark [21] stands for this setting: pH 6.6, MABA, Middlebrook 7H9 broth pH 6.6, resazurin after 120 h, read-out: Mtb H37Ra MIC.

≈ marks a conversion by molar mass, not a printed value. Read-outs that look alike come from different tables or passages of the source.

For `NC(=O)c1nccnc1NC(=O)C12CC3CC(CC(C3)C1)C2` [Compound 28], the MIC in data set [1] (setting [21]) is 31.2 µg/mL (≈ 104 µM); in data set [3], above 500 µM; in data set [4], above 500 µM; in [5] it was above 500 µM; in [6] it was above 500 µM; in data set [7] it was above 500 µM. Moreover, the MIC is above 500 µM in [9]; 125 µg/mL (≈ 416 µM) in data set [10]; 500 µM (≈ 150 µg/mL) in data set [11]; above 500 µM in data set [12]; above 500 µM in [13]; above 500 µM in data set [14]. The MIC in [15] was above 500 µM; in [16], above 500 µM; in data set [17], above 500 µM; in [18], 125 µM (≈ 37.5 µg/mL); in data set [19] it was 500 µM (≈ 150 µg/mL); in data set [20], 125 µg/mL (≈ 416 µM). Also, the “KP MIC” value in data set [2] is above 500 µM. In addition, in [8], the IC50 was determined as 367 µM.
In the case of `NC(=O)c1nccnc1NC(=O)c1ccc(O)cc1` [Compound 23], the melting point lay within 243.7 to 245.1 °C. Besides, the minimum inhibitory concentration (MIC) in data set [1] (setting [21]) was at least 500 µg/mL. Further, the concentration for half-maximal inhibition (IC50) in [8] is above 500 µM. The minimum inhibitory concentration (MIC) in data set [10] is at least 500 µg/mL. Moreover, the MIC in data set [20] is at least 500 µg/mL.
Compound `NC(=O)c1nccnc1NC(=O)c1ccccc1O` [Compound 22] displayed a melting point above 300 °C. In addition, in [1] (pH 6.6, read-out: Mtb H37Ra MIC, MABA, Middlebrook 7H9 broth pH 6.6, resazurin after 120 h), the minimal inhibitory concentration (MIC) was at least 500 µg/mL. Further, the half-inhibitory concentration (IC50) in [8] is above 250 µM. Further, the minimal inhibitory concentration (MIC) in [10] is at least 500 µg/mL. The minimum inhibitory concentration (MIC) in [20] was at least 500 µg/mL.
Consider `COC(=O)c1nccnc1NC(=O)c1cccc(F)c1` [Compound 11e], for which the melting point lay in the range of 135.5 to 136.3 °C. For the same compound, the MIC in [1] (setting [21]) came to 250 µg/mL (≈ 908 µM). The MIC in data set [10] was at least 500 µg/mL. Moreover, in data set [20], the minimum inhibitory concentration (MIC) was at least 500 µg/mL.
As to `COC(=O)c1nccnc1NC(=O)c1ccccc1Cl` [Compound 13e], the melting point is 114.5 to 115.6 °C. In [1] (setting [21]), the MIC was at least 500 µg/mL. The MIC in data set [10] was at least 500 µg/mL. The MIC in data set [20] turned out to be 250 µg/mL (≈ 857 µM).
Take `COC(=O)c1nccnc1NC(=O)c1ccc(F)cc1` [Compound 12e]: the melting point lay within 151.1 to 153.6 °C. Also, the minimum inhibitory concentration (MIC) in data set [1] (setting [21]) is at least 500 µg/mL. Moreover, in [10], the minimal inhibitory concentration (MIC) was at least 500 µg/mL. Also, the minimal inhibitory concentration (MIC) in data set [20] was at least 500 µg/mL.
In the case of `NC(=O)c1nccnc1NC(=O)c1ccccc1Cl` [Compound 13], the minimal inhibitory concentration (MIC) in data set [1] (setting [21]) is at least 500 µg/mL; in data set [3] it was above 500 µM; in [4] it was above 500 µM; in data set [5], above 500 µM; in [6], above 500 µM; in data set [7] it was above 500 µM. Also, the MIC in data set [9] was above 500 µM; in data set [10] it was at least 500 µg/mL; in data set [11], above 500 µM; in data set [12], above 500 µM; in data set [13] it was above 500 µM; in [14], above 500 µM. For the same compound, the MIC is above 500 µM in data set [15]; above 500 µM in data set [16]; above 500 µM in [17]; above 500 µM in [18]; above 500 µM in [19]; at least 500 µg/mL in data set [20]. In addition, the “KP MIC” value in data set [2] is given as above 500 µM. For the same compound, the concentration for half-maximal inhibition (IC50) in data set [8] was above 250 µM.
Regarding `NC(=O)c1nccnc1NC(=O)c1ccccc1` [Compound 1], the MIC in data set [1] (setting [21]) is 250 µg/mL (≈ 1030 µM); in data set [3] it was above 500 µM; in data set [4] it was above 500 µM; in data set [5], above 500 µM; in data set [6], above 500 µM; in data set [7], above 500 µM. The MIC in [9] is above 500 µM; in [10], at least 500 µg/mL; in data set [11], above 500 µM; in data set [12], above 500 µM; in data set [13], above 500 µM; in [14], above 500 µM. The minimal inhibitory concentration (MIC) was above 500 µM in data set [15]; above 500 µM in [16]; above 500 µM in data set [17]; above 500 µM in data set [18]; above 500 µM in data set [19]; at least 500 µg/mL in data set [20]. Moreover, in [2], the “KP MIC” value was above 500 µM. For the same compound, the IC50 in data set [8] is above 250 µM.
`COC(=O)c1nccnc1NC(=O)c1ccccc1F` [Compound 10e] displayed a melting point of 123.2 to 125.4 °C. For the same compound, the minimal inhibitory concentration (MIC) in [1] (setting [21]) is 250 µg/mL (≈ 908 µM). Further, in data set [10], the minimum inhibitory concentration (MIC) is at least 500 µg/mL. The MIC in data set [20] was at least 500 µg/mL.
